Assay results published in patent publication US20140134230A1, “TRANSDERMAL THERAPEUTIC SYSTEM” (priority 2005, published 2014).

Legend:
[1] = Saturation solubility of rivastigmine free base in the silicone adhesive; format: physicochemical
[2] = Rivastigmine's biopharmaceutical properties in humans; format: in vivo
Text: Little has been published in detail on rivastigmine's biopharmaceutical properties in humans. […] It is subject to pre-systemic and systemic metabolism.

In the case of `CCN(C)C(=O)Oc1cccc([C@H](C)N(C)C)c1` [rivastigmine], the “saturation solubility in the silicone adhesive” value [1] is reported as “about 5 %-wt”, the absorption [2] is reported as “rapidly and completely absorbed” and the metabolism [2] is reported as “metabolised mainly through hydrolysis by esterases”.
